Reference: patent US20230346734A1, “COMBINATION THERAPY OF ATRA OR OTHER RETINOIDS WITH IMMUNOTHERAPEUTIC AGENTS BINDING TO BCMA” (JULIUS-MAXIMILIANS-UNIVERSITÄT WÜRZBURG, priority 2020, published 2023)

Legend:
BCMA expression on MM.1S [1] = assay: BCMA expression on MM.1S by flow cytometry after ATRA treatment; assay type: cell-based, human
Protocol: (§1) Flow cytometric analysis of BCMA-expression on MM.1S, OPM-2 and NCI-H929 cell lines that had been cultured in the absence or presence of 50 nM ATRA for 72 hours. […] 7-AAD was used to exclude dead cells from analysis.

BCMA expression on OPM-2 = BCMA expression on OPM-2 by flow cytometry after ATRA treatment; assay type: cell-based, human
Protocol: as §1

[2] = test system: BCMA surface molecules on MM.1S cells; assay: BCMA molecule distribution on MM.1S cells by dSTORM; assay type: cell-based, human; settings: vs untreated
Text: Representative photographs of BCMA molecule distribution on untreated and ATRA-treated MM.1S cells visualized by direct stochastic optical reconstruction microscopy (dSTORM).

BCMA RNA levels in MM.1S = BCMA RNA levels in MM.1S by qRT-PCR; assay type: cell-based, human; settings: 50 nM ATRA, 48 hours, qPCR
Protocol: (§2) BCMA RNA levels in MM.1S (n=4) and OPM-2 (n=3) by quantitative reverse transcription PCR (qRT-PCR) assay was quantified after incubation with increasing doses of ATRA for 48 hours. Depicted are mean values+SD.
(§3) Total RNAs were extracted with RNeasy Mini Kit (Qiagen, Hilden, Germany) according to the manufacturer's protocol. Reverse transcription-quantitative polymerase chain reaction (RT-qPCR) analysis of BCMA was performed with 1 μg of total RNA and SuperScript™ II Reverse Transcriptase (Thermo Fisher Scientific, Inc Massachusetts). The quality and integrity of the RNA was verified by a Bioanalyzer 2100 (Agilent Technologies, Santa Clara, CA). The primer sequences used were as follows: BCMA forward primer, 5′-TGTTCTTCTAATACTCCTCCTCT-3′ (SEQ ID NO: 25) and reverse primer, 5′-AACTCGTCCTTTAATGGTTC-3′ (SEQ ID NO: 26). […] RT-qPCR was performed in a 7900HT Real-time PCR System (Thermo Fisher Scientific, Inc Massachusetts) using Quantitec SYBR green Kit (Qiagen, Hilden, Germany) in a 7900 HT Fast Real Time PCR System (Applied Biosystems, Foster City, CA). […] The threshold cycle for each sample was selected from the linear range and converted to a starting quantity by interpolation from a standard curve generated on the same plate for each set of primers. […]

BCMA RNA levels in OPM-2 = BCMA RNA levels in OPM-2 by qRT-PCR; assay type: cell-based, human; settings: 50 nM ATRA, 48 hours, qPCR
Protocol: as §2, §3

[3] = test system: BCMA CD4+ and CD8+ CAR T-cells; assay: Viability of BCMA-CAR T-cells after incubation with ATRA; assay type: cell-based, human; settings: increasing doses of ATRA, 72 hours; 7-AAD- T cells
Protocol: Viability of BCMA CD4+ and CD8+ CAR T-cells after incubation with increasing doses of ATRA for 72 hours determined by flow cytometry. […] Data are presented as mean values+SD (n=3).

[4] = test system: EGFRt_BCMA-CAR transgene expression of BCMA CD4+ and CD8+ CAR T-cells; assay: EGFRt_BCMA-CAR transgene expression of BCMA-CAR T-cells after incubation with ATRA; assay type: cell-based, human; settings: increasing doses of ATRA, 72 hours; EGFRt+ T cells
Protocol: EGFRt_BCMA-CAR transgene expression of BCMA CD4+ and CD8+ CAR T-cells after incubation with increasing doses of ATRA for 72 hours determined by flow cytometry. […] Data are presented as mean values+SD (n=3).

MM.1S myeloma cells = assay: Cytolytic activity of CD8+ BCMA-CAR T-cells against pretreated MM.1S, bioluminescence-based assay; assay type: cell-based, human; settings: MM.1S pretreated 72 hours with 100 nM ATRA and/or 0.01 uM GSI; 4 h co-incubation
Protocol: Myeloma cell lines were incubated with 100 nM ATRA and/or 0.01 uM GSI for 72 hours or were left untreated. Cytolytic activity of CD8^+ BCMA-CAR T-cells was determined in a bioluminescence-based assay after 4 h of co-incubation with target cells. Assay was performed in triplicate wells with 5,000 target cells per well. Data are presented as mean values+SD of n=4 independent experiments.
(§4) Cytolytic activity was analyzed in a bioluminescence-based assay using firefly-luciferase (ffluc)-transduced target cells. Proliferation was measured by dilution of CFSE proliferation dye by flow cytometry. Therefore, CFSE-labeled CAR T-cells were incubated with target cells for 72 h at a 4:1 effector to target cell ratio. IFNγ and IL-2 were measured by ELISA (Biolegend, Koblenz, Germany) in supernatants obtained after a 20 hour co-culture of T-cells with target cells (effector:target ratio=4:1).

[5] = test system: BCMA-CAR T-cells co-incubated with MM.1S; assay: Proliferation of CFSE-labeled BCMA-CAR T-cells after stimulation with pretreated MM.1S; assay type: cell-based, human; settings: MM.1S pretreated 72 hours with 100 nM ATRA and/or 0.01 uM GSI; CFSE after three days
Protocol: MM.1S were incubated with 100 nM ATRA and/or 0.01 uM GSI for 72 hours or were left untreated. Afterwards, CFSE-labeled BCMA-CAR T-cells were co-incubated with these target cells. Proliferative capacity of BCMA-CAR T-cells was determined after three days by measuring the reduction of CFSE-labeling in effector cells. Data are presented as mean values+SD of n=3 independent experiments.
as §4

[6] = test system: BCMA-CAR T-cells co-incubated with MM.1S; assay: Cytokine release of BCMA-CAR T-cells after stimulation with pretreated MM.1S, ELISA; assay type: cell-based, human; settings: MM.1S pretreated 72 hours with 100 nM ATRA and/or 0.01 uM GSI, 20 hours co-incubation
Protocol: MM.1S were incubated with 100 nM ATRA and/or 0.01 uM GSI for 72 hours or were left untreated. Afterwards, BCMA-CAR T-cells were co-incubated with these target cells for 20 hours. Cytokine release of BCMA-CAR T-cells was determined in the supernatant by ELISA. Assay was performed in triplicate wells. Data are presented as mean values+SD of n=3 independent experiments.
as §4

BCMA expression on MM.1S [7] = assay: BCMA expression on MM.1S from bone marrow of ATRA-treated NSG mice; assay type: in vivo; settings: NSG/MM1.S; ATRA 30 mg/kg i.p. every day, 4 days; P=0.002
Protocol: NSG mice were inoculated with MM.1S cells. After twelve days, mice were i.p. injected with 30 mg/kg ATRA for 4 days. BCMA-expression on MM.1S cells obtained from bone marrow of untreated and ATRA-treated mice was analysed by flow cytometry.
The University of Wurzburg Institutional Animal Care and Use Committee approved all mouse experiments. Six- to eight-week old female NSG (NOD-scid IL2rynull) mice were obtained from Charles River and inoculated by tail vein injection with 2×10^6 MM.1S/ffluc_GFP at day 0 and randomly allocated to ATRA-treatment and control group. ATRA (Sigma Aldrich, Darmstadt, Germany) was formulated in corn oil and administered by intraperitoneal (i.p) injection (30 mg/kg) for four days, starting twelve days after tumor inoculation.
This encouraged experiments in a murine xenograft model of myeloma (NSG/MM1.S). In a first set of experiments, n=6 mice were inoculated with MM1.S cells (2×10^6 cells given i.v. by tail vein injection) for 12 days to establish systemic myeloma, and then administered a 4-day treatment course with either ATRA (n=3 mice; 30 mg/kg given i.p. every day) or solvent control (n=3 mice). The following day, mice were sacrificed, MM.1S myeloma cells were isolated from bone marrow and BCMA expression analyzed by flow cytometry. […] The in vivo upregulation of BCMA after GSI treatment was shown by Pont et. al. in 2019^40.

[8] = test system: BCMA expression on NCI-H929; assay: BCMA expression on NCI-H929 by flow cytometry after ATRA treatment
[9] = test system: BCMA expression on primary myeloma cells; assay: BCMA expression on primary myeloma cells by flow cytometry after ATRA treatment
[10] = deltaMFI at baseline normalized to 1, 72 hours

- effect on expression of the EGFRt_BCMA-CAR transgene [4]: did not diminish
Structure (SMILES): CC1=C(/C=C/C(C)=C/C=C/C(C)=C/C(=O)O)C(C)(C)CCC1 [ATRA, all-trans retinoic acid]
- time for BCMA expression to return to baseline levels upon discontinuation of ATRA treatment (BCMA expression on MM.1S [1]): ≤ 72 h
- BCMA expression when ATRA treatment was recommenced (BCMA expression on MM.1S [1]; 72 hours after re-exposition): increased again with the same amplitude
- BCMA expression, deltaMFI (BCMA expression on MM.1S [1]; ATRA (50 nM per FIG. 1) for 72 hours, untreated deltaMFI 1,098): 2,709
- relative increase in BCMA expression after ATRA treatment (BCMA expression on MM.1S [1]; [10]): 1.9 fold
- time for BCMA expression to return to baseline levels upon discontinuation of ATRA treatment (BCMA expression on OPM-2): ≤ 72 h
- BCMA expression when ATRA treatment was recommenced (BCMA expression on OPM-2; 72 hours after re-exposition): increased again with the same amplitude
- BCMA expression, deltaMFI (BCMA expression on OPM-2; ATRA (50 nM per FIG. 1) for 72 hours, untreated deltaMFI 3,558): 7,358
- relative increase in BCMA expression after ATRA treatment (BCMA expression on OPM-2; [10]): 1.9 fold
- BCMA surface molecules by dSTORM after ATRA treatment [2]: increase of BCMA surface molecules
- relative increase in BCMA transcripts (BCMA RNA levels in MM.1S): 1.8 fold
- relative increase in BCMA transcripts (BCMA RNA levels in OPM-2): 2.1 fold
- effect on viability of BCMA-CAR T-cells [3]: no negative effect
- cytolytic activity of BCMA-CAR T-cells against pretreated vs non-treated target cells (MM.1S myeloma cells): superior cytolysis
- proliferative capacity of BCMA-CAR T-cells [5]: enhanced proliferative capacity
- cytokine release of BCMA-CAR T-cells [6]: enhanced
- BCMA expression on MM.1S myeloma cells from bone marrow vs control mice (BCMA expression on MM.1S [7]): Significantly higher BCMA expression
- time for BCMA expression to return to baseline levels upon discontinuation of ATRA treatment [8]: ≤ 72 h
- BCMA expression when ATRA treatment was recommenced ([8]; 72 hours after re-exposition): increased again with the same amplitude
- BCMA expression, deltaMFI ([8]; ATRA (50 nM per FIG. 1) for 72 hours, untreated deltaMFI 9,883): 13,891
- relative increase in BCMA expression after ATRA treatment [8, 10]: 1.7 fold
- BCMA expression once exposure to ATRA was discontinued ([9]; 100 nM ATRA, 24 hours after removal): declined to baseline levels
- increase in deltaMFI for BCMA expression, average ([9]; 100 nM ATRA, 72 hours): 1.6 ×
- BCMA expression upon re-exposure to ATRA ([9]; 72 hours after re-exposition): increased again
- BCMA expression by flow cytometry after ATRA ([9]; n=5 patients, 72 hours, 100 nM P=0.04, 50 nM P=0.006, 25 nM P=0.04): significant increase
